Measurements as given in article PMC9221290, “Alkaloids of Dicranostigma franchetianum (Papaveraceae) and Berberine Derivatives as a New Class of Antimycobacterial Agents” (Biomolecules, 2022).
In brackets after ≈: the same amount, converted by molar mass. Where two headings read alike, the source gives them in different places.

What was measured:
[1] = system: Mtb H37Ra ITM-M006710 (ATCC 9431); test: Antimycobacterial microdilution broth assay (resazurin), Mtb H37Ra; assay type: cell-based, Mycobacterium tuberculosis; conditions: Mycobacterium tuberculosis, read-out: MIC Mtb H37Ra
[2] = system: Mycolicibacterium aurum DSM 43999 (ATCC 23366); test: Antimycobacterial microdilution broth assay (resazurin), M. aurum; assay type: cell-based; conditions: Mycolicibacterium aurum, 72 h
[3] = system: Mycobacterium avium DSM 44156 (ATCC 25291); test: Antimycobacterial microdilution broth assay (resazurin), M. avium; assay type: cell-based; conditions: Mycobacterium avium, 96 h, read-out: MIC M. avium, microdilution broth, resazurin, 96 h
[4] = system: Mycobacterium kansasii DSM 44162 (ATCC 12478); test: Antimycobacterial microdilution broth assay (resazurin), M. kansasii; assay type: cell-based; conditions: Mycobacterium kansasii, 96 h
[5] = system: Mycolicibacterium smegmatis DSM 43465 (ATCC 607); test: Antimycobacterial microdilution broth assay (resazurin), M. smegmatis; assay type: cell-based; conditions: Mycolicibacterium smegmatis, 48 h
[6] = system: five Mycobacterium or Mycolicibacterium strains; test: organism not typed; assay type: cell-based; conditions: read-out: MICs against all tested mycobacterial strains
[7] = system: Aspergillus fumigatus; set-up: method as in PMID 21341176; conditions: read-out: IC50 against Aspergillus fumigatus; cited from earlier work
[8] = system: methicillin-resistant Staphylococcus aureus; set-up: method as in PMID 21341176; conditions: read-out: IC50 against methicillin-resistant Staphylococcus aureus; cited from earlier work
[9] = system: HepG2 cells
[10] = system: HepG2 cells; test: cells; conditions: Homo sapiens, HepG2, 24 h
[11] = in vitro; conditions: human, % of cell viability compared to control; for viability at 0.1 µM: HepG2, 0.1 µM; for viability at 1 µM: HepG2, 1 µM; for viability at 5 µM: HepG2, 5 µM; for viability at 10 µM: HepG2, 10 µM; for viability at 20 µM: HepG2, 20 µM; for viability at 30 µM: HepG2, 30 µM; for viability at 40 µM: HepG2, 40 µM; for viability at 50 µM: HepG2, 50 µM; for viability at 25 µM: HepG2, 25 µM; for viability at 75 µM: HepG2, 75 µM; for viability at 100 µM: HepG2, 100 µM
[12] = system: M. intracellulare; conditions: cited from earlier work
[13] = system: Mycolicibacterium smegmatis; set-up: method as in PMID 9784149; conditions: cited from earlier work
[14] = system: pulmonary tuberculosis; set-up: method as in PMID 34745081; conditions: mice with pulmonary tuberculosis; cited from earlier work
[15] = 120 h, microdilution broth, resazurin, 120 h
[16] = calculated from MIC (µg/mL) and MW
[17] = read-out: MIC M. aurum, microdilution broth, resazurin, 72 h
[18] = read-out: MIC M. kansasii, microdilution broth, resazurin, 96 h
[19] = read-out: MIC M. smegmatis, microdilution broth, resazurin, 48 h
[20] = read-out: HepG2 IC50, MTT, 24 h incubation
[21] = read-out: HepG2 IC50, 1. measurement, MTT, 24 h, single measurement 1
[22] = read-out: HepG2 IC50, 2. measurement, MTT, 24 h, single measurement 2
[23] = read-out: HepG2 IC50, 3. measurement, MTT, 24 h, single measurement 3

## COc1ccc2c(c1OC)C(OC1c3c(ccc(OC)c3OC)-c3ccc4cc5c(cc4c3N1C)OCO5)N(C)c1c-2ccc2cc3c(cc12)OCO3 (centres unmarked) [compound 5, bis-[6-(5,6-dihydrochelerythrinyl)]ether]
[1]; [15]
  MIC: 31.2 µg/mL
[1]; [16]
  MIC: 44 µM
[2]; [17]
  MIC: 31.2 µg/mL (≈ 43.8 µM)
[3]
  MIC: 31.2 µg/mL (≈ 43.8 µM)
[4]; [18]
  MIC: 31.2 µg/mL (≈ 43.8 µM)
[5]; [19]
  MIC: 31.2 µg/mL (≈ 43.8 µM)
[6]
  MIC: 15.6 to 31.2 µg/mL (≈ 21.9 to 43.8 µM)
[7]
  IC50: 0.9 µM
[8]
  IC50: 1 µM

## COc1ccc2cc3[n+](cc2c1OCc1ccccc1Br)CCc1cc2c(cc1-3)OCO2 [16e, 9-O-(2-brombenzyl)berberine chloride]
[1]; [15]
  MIC: 1.56 µg/mL
[1]; [16]
  MIC: 2.96 µM
[2]; [17]
  MIC: 0.78 µg/mL
[3]
  MIC: 1.56 µg/mL
[4]; [18]
  MIC: 3.12 µg/mL
[5]; [19]
  MIC: 0.39 µg/mL
[6]
  MIC: 0.39 to 3.12 µg/mL
[9]
  SI (selectivity index): 3.92
[9]; [20]
  IC50: 11.8 ± 0.29 µM
[10]; [21]
  IC50: 11.5 µM
[10]; [22]
  IC50: 11.8 µM
[10]; [23]
  IC50: 12 µM
[10]; [20]
  IC50: 11.6 ± 0.29 µM
[11]; 1. measurement
  viability at 0.1 µM: 102%
  viability at 1 µM: 96.3%
  viability at 5 µM: 66.9%
  viability at 10 µM: 48.6%
  viability at 20 µM: 40.7%
  viability at 30 µM: 34.3%
  viability at 40 µM: 24.6%
  viability at 50 µM: 10.5%
[11]; 2. measurement
  viability at 0.1 µM: 95.5%
  viability at 1 µM: 93.8%
  viability at 5 µM: 66.2%
  viability at 10 µM: 53.6%
  viability at 20 µM: 46.1%
  viability at 30 µM: 36.5%
  viability at 40 µM: 16.2%
  viability at 50 µM: 2.08%
[11]; 3. measurement
  viability at 0.1 µM: 92%
  viability at 1 µM: 98.5%
  viability at 5 µM: 68%
  viability at 10 µM: 53.7%
  viability at 20 µM: 45.1%
  viability at 30 µM: 34.5%
  viability at 40 µM: 14.8%
  viability at 50 µM: 2.75%

## COc1ccc2cc3[n+](cc2c1OCc1ccc(Cl)cc1)CCc1cc2c(cc1-3)OCO2 [16i, 9-O-(4-chlorbenzyl)berberine chloride]
[1]; [15]
  MIC: 3.12 µg/mL
[1]; [16]
  MIC: 5.93 µM
[2]; [17]
  MIC: 3.12 µg/mL
[3]
  MIC: 1.56 µg/mL
[4]; [18]
  MIC: 6.25 µg/mL
[5]; [19]
  MIC: 1.56 µg/mL
[9]
  SI (selectivity index): 2.73
[10]; [21]
  IC50: 15.9 µM
[10]; [22]
  IC50: 14.7 µM
[10]; [23]
  IC50: 18 µM
[10]; [20]
  IC50: 16.2 ± 1.67 µM
[11]; 1. measurement
  viability at 0.1 µM: 96.1%
  viability at 1 µM: 101%
  viability at 5 µM: 82.3%
  viability at 10 µM: 55.3%
  viability at 20 µM: 48.5%
  viability at 30 µM: 42.3%
  viability at 40 µM: 24.7%
  viability at 50 µM: 4.45%
[11]; 2. measurement
  viability at 0.1 µM: 91.6%
  viability at 1 µM: 93.6%
  viability at 5 µM: 78%
  viability at 10 µM: 56%
  viability at 20 µM: 48.4%
  viability at 30 µM: 40%
  viability at 40 µM: 21.4%
  viability at 50 µM: 3.4%
[11]; 3. measurement
  viability at 0.1 µM: 98.2%
  viability at 1 µM: 100%
  viability at 5 µM: 82.3%
  viability at 10 µM: 61.1%
  viability at 20 µM: 54.6%
  viability at 30 µM: 45%
  viability at 40 µM: 25.8%
  viability at 50 µM: 2.8%

## COc1ccc2cc3[n+](cc2c1OCc1ccccc1C)CCc1cc2c(cc1-3)OCO2 [16b, 9-O-(2-methylbenzyl)berberine chloride]
[1]; [15]
  MIC: 7.81 µg/mL
[1]; [16]
  MIC: 16.9 µM
[2]; [17]
  MIC: 7.81 µg/mL
[3]
  MIC: 3.91 µg/mL
[4]; [18]
  MIC: 3.91 µg/mL
[5]; [19]
  MIC: 1.95 µg/mL
[9]
  SI (selectivity index): 2.32
[10]; [21]
  IC50: 36 µM
[10]; [22]
  IC50: 38.6 µM
[10]; [23]
  IC50: 43.2 µM
[10]; [20]
  IC50: 39.3 ± 3.62 µM
[11]; 1. measurement
  viability at 1 µM: 96%
  viability at 5 µM: 83.6%
  viability at 10 µM: 73%
  viability at 25 µM: 48.6%
  viability at 50 µM: 41.5%
  viability at 75 µM: 39.3%
  viability at 100 µM: 37.5%
[11]; 2. measurement
  viability at 1 µM: 97.8%
  viability at 5 µM: 87.1%
  viability at 10 µM: 76.6%
  viability at 25 µM: 51.6%
  viability at 50 µM: 42.5%
  viability at 75 µM: 41.1%
  viability at 100 µM: 33.8%
[11]; 3. measurement
  viability at 0.1 µM: 99.5%
  viability at 1 µM: 99.4%
  viability at 5 µM: 88.8%
  viability at 10 µM: 76.5%
  viability at 25 µM: 51.6%
  viability at 50 µM: 44.9%
  viability at 75 µM: 42.6%
  viability at 100 µM: 38.5%

## CCOC1c2c(ccc(OC)c2OC)-c2ccc3cc4c(cc3c2N1C)OCO4 (centres unmarked) [compound 3, 6-ethoxydihydrochelerythrine]
[1]; [15]
  MIC: 31.2 µg/mL
[1]; [16]
  MIC: 79 µM
[2]; [17]
  MIC: 15.6 µg/mL (≈ 39.7 µM)
[3]
  MIC: 31.2 µg/mL (≈ 79.4 µM)
[4]; [18]
  MIC: 31.2 µg/mL (≈ 79.4 µM)
[5]; [19]
  MIC: 31.2 µg/mL (≈ 79.4 µM)
[6]
  MIC: 15.6 to 31.2 µg/mL (≈ 39.7 to 79.4 µM)

## COc1ccc2cc3[n+](cc2c1OC)CCc1cc2c(cc1-3)OCO2 [compound 16, berberine]
[1]; [15]
  MIC: 125 µg/mL
[1]; [16]
  MIC: 336 µM
[2]; read-out: MIC M. aurum
  MIC: 62.5 µg/mL
[3]
  MIC: 31.2 µg/mL
[4]; read-out: MIC M. kansasii
  MIC: 31.2 µg/mL
[5]; microdilution broth, resazurin, read-out: MIC M. smegmatis
  MIC: 62.5 µg/mL
[12]
  MIC against M. intracellulare: 1.56 µg/mL
[12]; ref Gentry et al. 1998
  MIC against M. intracellulare: 200 µg/mL
[13]
  MIC against Mycolicibacterium smegmatis: 25 µg/mL
[14]
  effects on bacterial burden: no additive or synergistic effects
  lung pathology: decreased lung pathology

## COc1ccc2cc3[n+](cc2c1OCc1ccc(Br)cc1)CCc1cc2c(cc1-3)OCO2 [16g, 9-O-(4-brombenzyl)berberine chloride]
[1]; [15]
  MIC: 3.91 µg/mL
[1]; [16]
  MIC: 7.42 µM
[2]; [17]
  MIC: 3.91 µg/mL
[3]
  MIC: 1.98 µg/mL
[4]; [18]
  MIC: 0.98 µg/mL
[5]; [19]
  MIC: 0.98 µg/mL
[9]
  SI (selectivity index): 2.89
[10]; [21]
  IC50: 19.2 µM
[10]; [22]
  IC50: 26.9 µM
[10]; [23]
  IC50: 18.2 µM
[10]; [20]
  IC50: 21.4 ± 4.8 µM
[11]; 1. measurement
  viability at 1 µM: 101%
  viability at 5 µM: 70.1%
  viability at 10 µM: 53.9%
  viability at 25 µM: 46.7%
  viability at 50 µM: 42.5%
  viability at 75 µM: 25.8%
  viability at 100 µM: 17.9%
[11]; 2. measurement
  viability at 1 µM: 96.5%
  viability at 5 µM: 76.3%
  viability at 10 µM: 59.4%
  viability at 25 µM: 44.7%
  viability at 50 µM: 47.8%
  viability at 75 µM: 40.7%
  viability at 100 µM: 23.9%
[11]; 3. measurement
  viability at 1 µM: 85%
  viability at 5 µM: 72.1%
  viability at 10 µM: 56.6%
  viability at 25 µM: 45.8%
  viability at 50 µM: 45.5%
  viability at 75 µM: 26%
  viability at 100 µM: 14%
